Assay results reported in US8304223B2, “Isoforms of pig liver esterase” (Enzymicals AG, priority 2007, dated 2012).
Where two headings read alike, the source gives them in different places.

Columns and labels:
PLE 2 = target: T1, PLE 2 (Sus scrofa, UniProt Q29550, F477A/K481R/L479F); assay: biochemical; assay type: biochemical, pig; settings: 25° C.; for remaining activity at 10 µM: inhibitor 0.01 mM; for Remaining activity in %: inhibitor 1 mM
T1 construct: made in house; host or cells: E. coli Origami (DE3) with pGro7 (GroEL/GroES coexpression), crude extract
T1 sequence (Q29550 19-562 F477A/L479F/K481R): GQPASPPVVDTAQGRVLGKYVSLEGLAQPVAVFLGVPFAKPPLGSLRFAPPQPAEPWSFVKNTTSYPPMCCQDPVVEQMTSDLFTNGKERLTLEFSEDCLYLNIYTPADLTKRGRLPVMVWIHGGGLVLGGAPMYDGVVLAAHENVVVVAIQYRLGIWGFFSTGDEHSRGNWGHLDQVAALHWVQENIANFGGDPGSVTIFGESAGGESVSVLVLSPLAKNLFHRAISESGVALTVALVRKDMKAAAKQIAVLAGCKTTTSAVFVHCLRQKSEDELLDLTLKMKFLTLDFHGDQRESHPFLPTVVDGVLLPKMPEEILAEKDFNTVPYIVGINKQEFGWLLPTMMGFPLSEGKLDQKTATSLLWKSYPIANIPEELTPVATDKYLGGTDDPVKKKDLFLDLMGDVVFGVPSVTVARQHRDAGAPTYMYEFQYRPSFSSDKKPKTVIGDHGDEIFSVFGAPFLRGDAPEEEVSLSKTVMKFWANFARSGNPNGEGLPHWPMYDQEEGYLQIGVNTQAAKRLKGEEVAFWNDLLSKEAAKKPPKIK
Procedure: (§1) Esterase activity was determined spectrophotometrically in sodium phosphate buffer (50 mM) by means of p-nitrophenyl acetate (10 mM, dissolved in dimethyl sulfoxide) as substrate. The amount of p-nitrophenol generated was determined at a wavelength of 410 nm (ε=15*10^3 M^−1 cm^−1) at RT and pH 7.5. 1 unit (U) is defined as the amount of enzyme capable of converting 1 μM p-nitrophenol per minute under analytical conditions (Krebsfänger, N., et. al., (1998) Enzyme Microb. Technol, 22, 641-646).
(§2) The inhibitability of the new PLE variants was determined by treating the crude extracts with any of three esterase inhibitors. […] Samples were taken at certain points in time and the remaining esterase activity was determined by the pNPA assay.

PLE 1 (γ-PLE) = target: T2, PLE 1 (γ-PLE) (Sus scrofa, UniProt Q29550); assay: biochemical; assay type: biochemical, pig; settings: 25° C.; for remaining activity at 10 µM: inhibitor 0.01 mM; for Remaining activity in %: inhibitor 1 mM
T2 construct: made in house; host or cells: E. coli Origami (DE3) with pGro7 (GroEL/GroES coexpression), crude extract
T2 sequence (Q29550 with tags, fused parts or gaps): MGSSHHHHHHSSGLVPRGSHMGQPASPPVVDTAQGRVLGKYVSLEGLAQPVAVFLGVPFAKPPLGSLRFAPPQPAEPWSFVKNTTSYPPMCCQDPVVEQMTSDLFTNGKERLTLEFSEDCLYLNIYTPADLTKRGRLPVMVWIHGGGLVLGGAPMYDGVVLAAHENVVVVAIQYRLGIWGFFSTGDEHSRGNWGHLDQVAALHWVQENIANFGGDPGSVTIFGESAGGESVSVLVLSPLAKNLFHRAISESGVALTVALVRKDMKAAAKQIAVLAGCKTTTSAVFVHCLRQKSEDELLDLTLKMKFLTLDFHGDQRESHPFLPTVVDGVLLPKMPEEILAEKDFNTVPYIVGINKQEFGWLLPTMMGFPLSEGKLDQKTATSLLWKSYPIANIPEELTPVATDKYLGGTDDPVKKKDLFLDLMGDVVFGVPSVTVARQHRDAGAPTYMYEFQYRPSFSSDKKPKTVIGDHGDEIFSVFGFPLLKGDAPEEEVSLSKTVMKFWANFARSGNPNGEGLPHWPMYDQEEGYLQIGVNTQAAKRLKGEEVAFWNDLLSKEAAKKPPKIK
Procedure: as §1, §2

PLE 3 = assay: Influence of inhibitors, remaining activity by pNPA assay; assay type: biochemical, pig; settings: 25° C.
Procedure: as §1, §2

PLE 4 = assay: as above; assay type: biochemical, pig; settings: 25° C.
Procedure: as §1, §2

PLE 5 = assay: as above; assay type: biochemical, pig; settings: 25° C.
Procedure: as §1, §2

[1] = Kinetic resolution of the racemates of substrate 3; assay type: biochemical; settings: calculated according to Chen et al.
Procedure: (§3) Hydrolysis was carried out in 1.5 ml reaction vessels in a thermomixer (Thermomixer comfort Eppendorf, Hamburg, Germany) at 37° C. 0.5 U esterase crude extract (based on the pNPA assay) were used for 1 ml of substrate solution (10 mM in sodium phosphate buffer pH 7.5, 50 mM). The reaction was stopped by extracting the mixture with dichloromethane, and the organic phase was dried over anhydrous sodium sulfate.
(§4) Enantiomeric purity and conversion were determined by gas chromatography. Enantioselectivity of the variant enzymes was calculated according to Chen et al. (C. S. Chen, Y. Fujimoto, G. Girdaukas, C. J. Sih, J. Am. Chem. Soc. 1982, 104, 7294.).
(§5) For a more detailed description of the synthesis of the substrates and the retention times in GC analysis, see Musidlowska-Persson, A. and Bornscheuer, U. T., “Substrate Specificity of the γ-isoenzyme of recombinant pig liver esterase towards acetates of secondary alcohols” J. Mol. Catal. B. Enzym. 2002, 19-20, 129-133.

[2] = pH stat activity with achiral ester ethyl caprylate; assay type: biochemical; settings: purified enzyme, pH stat at 37° C. and pH 7.5, 10 min
Procedure: Esterase substrate specificity was analyzed at constant pH. […] The acid liberated was counter titrated automatically in a pH statiometer (Schott, Mainz, Germany) with 0.01 N NaOH in order to maintain a constant pH of 7.5. 1 unit (U) is defined as the amount of enzyme capable of generating 1 μM acid per minute under analytical conditions.

[3] = Kinetic resolution of the racemates of substrate 1; assay type: biochemical; settings: calculated according to Chen et al.
Procedure: as §3, §4, §5

[4] = Kinetic resolution of the racemates of substrate 2; assay type: biochemical; settings: calculated according to Chen et al.
Procedure: as §3, §4, §5

[5] = pH stat activity with achiral ester triolein; assay type: biochemical; settings: purified enzyme, pH stat at 37° C. and pH 7.5, 10 min
Procedure: (§6) Esterase substrate specificity was analyzed at constant pH. A known amount of esterase was added to an emulsion (20 mL) containing an ester substrate (5% (v/v); tributyrin, ethyl acetate, triolein or methyl butyrate) and gum arabic (2% (w/v)) at 37° C. The acid liberated was counter titrated automatically in a pH statiometer (Schott, Mainz, Germany) with 0.01 N NaOH in order to maintain a constant pH of 7.5. 1 unit (U) is defined as the amount of enzyme capable of generating 1 μM acid per minute under analytical conditions.

[6] = pNPA assay of esterase activity (crude extracts); assay type: biochemical; settings: crude extract, N-terminal His6 tag
Procedure: The chaperones were coexpressed with the PLE isoenzymes in 150 ml of LB medium containing 20 μg mL^−1 chloramphenicol and 50 μg mL^−1 ampicillin for plasmid selection. Chaperone expression was immediately initiated by adding 1 mg mL^−1 L-arabinose. PLE production was induced at OD600=0.5 by adding 40 μM IPTG. The cells were removed by centrifugation after 24 h, resuspended in 10 ml of sodium phosphate buffer (50 mM, pH 7.5) and disrupted using ultrasound. Cell debris was removed by centrifugation, and the supernatant was used for further experiments (crude cell extract). Protein content and esterase activity were determined according to Bradford or using the pNPA assay.
as §1

[7] = pH stat activity with achiral ester ethyl acetate; assay type: biochemical; settings: purified enzyme, pH stat at 37° C. and pH 7.5, 10 min
Procedure: as §6

[8] = Native PAGE with Fast Red activity staining; assay type: biochemical; settings: crude extracts, Fast Red staining with α-naphthyl acetate
Procedure: A mixture containing the crude extract of recombinantly produced PLE (5-15 μL, corresponding to 0.05-0.15 U of pNPA analysis) was mixed with buffer solution (20% (w/v) glycerol; 0.0025% (w/v) bromophenol blue in dH2O) (5-10 μL). Aliquots thereof were separated on a native polyacrylamide gel (7.5%). For activity staining, the gel was incubated in a mixture of freshly prepared α-naphthyl acetate and Fast Red. Formation of a red complex between α-naphthol generated and Fast Red indicated hydrolytic activity of the esterase. (Krebsfänger, N., et. al., (1998) Enzyme Microb. Technol, 22, 641-646). The gel was then stained with Coomassie Brilliant Blue.
Esterase activity was checked by applying the crude extracts to a native gel which was then incubated in Fast Red solution with α-naphthyl acetate as substrate. This was followed by Coomassie staining (FIG. 4: Native PAGE of the crude extracts of PLE2, clone 12, PLE3, PLE4, PLE5, γPLE and the E. coli Origami pGro7 wild type (negative control). Left-hand side: Fast Red staining with α-naphthyl acetate, right-hand side: subsequent Coomassie Brilliant Blue staining).

[9] = pH stat activity with achiral ester tributyrin; assay type: biochemical; settings: purified enzyme, pH stat at 37° C. and pH 7.5, 10 min
Procedure: as §6

[10] = pH stat activity with achiral ester methyl butyrate; assay type: biochemical; settings: purified enzyme, pH stat at 37° C. and pH 7.5, 10 min
Procedure: as §6

[11] = substrate 4; literature data (*); cited from earlier work

CNC(=O)Oc1ccc2c(c1)[C@]1(C)CCN(C)[C@@H]1N2C [Physostigmine, physostigmine]
remaining activity at 10 µM (PLE 2; 1 min): 61% | remaining activity at 10 µM (PLE 2; 5 min): 25% | remaining activity at 10 µM (PLE 2; 30 min): 6% | remaining activity at 10 µM (PLE 1 (γ-PLE); 1 min): 41% | remaining activity at 10 µM (PLE 1 (γ-PLE); 5 min): 12% | remaining activity at 10 µM (PLE 1 (γ-PLE); 30 min): 7%

[F-].[Na+] [NaF, sodium fluoride]
Remaining activity in % (PLE 2; 5 min): 17% | Remaining activity in % (PLE 2; 30 min): 15% | Remaining activity in % (PLE 1 (γ-PLE); 5 min): 20% | Remaining activity in % (PLE 1 (γ-PLE); 30 min): 21% | Remaining activity in % (PLE 3; inhibitor 1 mM, 5 min): 44% | Remaining activity in % (PLE 3; inhibitor 1 mM, 30 min): 46% | Remaining activity in % (PLE 4; inhibitor 1 mM, 5 min): 64% | Remaining activity in % (PLE 4; inhibitor 1 mM, 30 min): 66% | Remaining activity in % (PLE 5; inhibitor 1 mM, 5 min): 83% | Remaining activity in % (PLE 5; inhibitor 1 mM, 30 min): 88%

O=S(=O)(F)Cc1ccccc1 [Phenylmethylsulfonyl fluoride (PMSF), phenylmethylsulfonyl fluoride]
Remaining activity in % (PLE 3; inhibitor 0.01 mM, 1 min): 77% | Remaining activity in % (PLE 3; inhibitor 0.01 mM, 5 min): 51% | Remaining activity in % (PLE 3; inhibitor 0.01 mM, 30 min): 7% | Remaining activity in % (PLE 3; inhibitor 0.01 mM, 60 min): 5% | Remaining activity in % (PLE 4; inhibitor 0.01 mM, 1 min): 78% | Remaining activity in % (PLE 4; inhibitor 0.01 mM, 5 min): 56% | Remaining activity in % (PLE 4; inhibitor 0.01 mM, 30 min): 7% | Remaining activity in % (PLE 4; inhibitor 0.01 mM, 60 min): 2% | Remaining activity in % (PLE 5; inhibitor 0.01 mM, 1 min): 88% | Remaining activity in % (PLE 5; inhibitor 0.01 mM, 5 min): 76% | Remaining activity in % (PLE 5; inhibitor 0.01 mM, 30 min): 24% | Remaining activity in % (PLE 5; inhibitor 0.01 mM, 60 min): 3%

B1: PLE 1: previously disclosed γ-isoenzyme of pig liver esterase (Seq. ID No. 2), recombinant from E. coli Origami with GroEL/ES (protein)
chain: MGSSHHHHHHSSGLVPRGSHMGQPASPPVVDTAQGRVLGKYVSLEGLAQPVAVFLGVPFAKPPLGSLRFAPPQPAEPWSFVKNTTSYPPMCCQDPVVEQMTSDLFTNGKERLTLEFSEDCLYLNIYTPADLTKRGRLPVMVWIHGGGLVLGGAPMYDGVVLAAHENVVVVAIQYRLGIWGFFSTGDEHSRGNWGHLDQVAALHWVQENIANFGGDPGSVTIFGESAGGESVSVLVLSPLAKNLFHRAISESGVALTVALVRKDMKAAAKQIAVLAGCKTTTSAVFVHCLRQKSEDELLDLTLKMKFLTLDFHGDQRESHPFLPTVVDGVLLPKMPEEILAEKDFNTVPYIVGINKQEFGWLLPTMMGFPLSEGKLDQKTATSLLWKSYPIANIPEELTPVATDKYLGGTDDPVKKKDLFLDLMGDVVFGVPSVTVARQHRDAGAPTYMYEFQYRPSFSSDKKPKTVIGDHGDEIFSVFGFPLLKGDAPEEEVSLSKTVMKFWANFARSGNPNGEGLPHWPMYDQEEGYLQIGVNTQAAKRLKGEEVAFWNDLLSKEAAKKPPKIK
modifications: Pig liver
E (enantioselectivity) [1]: 72 | Specific activity, Ethyl caprylate [2]: 63 | E (enantioselectivity) [3]: 4 | E (enantioselectivity) [4]: 17 | Specific activity, Triolein [5]: 0 | Volume activity [6]: 11 U/ml | Specific activity, Ethyl acetate [7]: 38 | Esterase activity (active bands) in native gel [8]: Active esterase bands are visible | Specific activity, Tributyrin [9]: 306 | Specific activity, Methyl butyrate [10]: 57 | E (enantioselectivity) [11]: 17
